Patent US20230203098A1, “HUMAN TRANSFERRIN RECEPTOR BINDING PEPTIDE” (priority 2020, published 2023)
Like-named read-outs stand apart in the source and are kept apart here. Each block holds one compound with its values, some of them ahead of it. *1 amine or outer side, *2 acyl side, *3 side chain or, on linkers, in order; H or OH if unused. Where a SMILES comes first, the peptide text is derived from it. Bridges are numbered along the chain shown (N, C = ends). Primed or numbered codes have the meaning given here. [ ]: non-standard residue; d: D form. The star is where a group is joined. ξ: configuration not given here. X6 = CC(C)[C@H](CC(=O)[C@H](Cc1ccccc1)N(C)[*:1])C(=O)[*:2]; X2 = O=C(O)c1cc(C(=O)*)ccc1-c1c2ccc(=O)cc-2oc2cc(O)ccc12; PEG12 = NCCOCCOCCOCCOCCOCCOCCOCCOCCOCCOCCOCCOCCC(=O)O; NMePhe(3-Cl) = CN[C@@H](Cc1cccc(Cl)c1)C(=O)O; NMeW = CN[C@@H](Cc1c[nH]c2ccccc12)C(=O)O; NMeY = CN[C@@H](Cc1ccc(O)cc1)C(=O)O; PEG4 = NCCOCCOCCOCCOCCC(=O)O; hLys = NCCCCC[C@H](N)C(=O)O; PEG11′ = not defined here; ξC = NC(CS)C(=O)O

Key:
[1] = tested on: Human breast cancer cells BT-549; test: Migration of 5-FAM peptide conjugates into human breast cancer cells BT-549 (fluorescence microscopy); format: cell-based; settings: BT-549 cells, sample diluted to 100 nmol/L, 37° C., 3 hours
Experimental: Culturing was performed under conditions of 37° C. and 5% CO2.
Collagen Type I (Corning) was diluted to 50 µg/mL with 20 mmol/L acetic acid. A sterilized cover glass was placed in each well of the 24-well plate. After the diluted Collagen Type I solution was added to the plate, the plate was incubated at 37° C. for 1 hour. The Collagen Type I solution was removed from the plate and the plate was washed 3 times with PBS. The human breast cancer cells BT-549 were inoculated in an amount of 1 × 10^5 cells per 1 well and cultured overnight under conditions of 37° C. and 5% CO2.
The sample was diluted with the dilution medium to 100 nmol/L.
The sample solution was removed from the 24-well plate, and the BT-549 cells were washed three times with PBS. 4% paraformaldehyde phosphate buffer (FUJIFILM Wako Pure Chemical Corporation) was added at 500 µL/well, and the cells were allowed to stand at room temperature for 15 minutes and then washed three times with PBS. Further, Hoechst 33342 (Thermo Fisher Scientific) diluted with PBS to 2 µg/mL was added at 500 µL/well, and the cells were allowed to stand at room temperature under shading for 10 minutes and then washed three times with PBS. The cover glass was removed from the 24-well plate, and the cells were enclosed on a slide glass using fluorescent mounting medium (Agilent Technologies) and allowed to stand at room temperature under shading overnight. For the observation, an inverted fluorescence microscope DMI6000B (Leica Microsystems) was used, and the observation was performed at the wavelength for detecting FITC and DAPI. The scale bar in the figures indicates 50 µm.

[2] = target: transferrin receptor (hTfR) (Homo sapiens, UniProt P02786); test: Intermolecular interaction evaluation test between transferrin receptor (hTfR) and peptide by surface plasmon resonance (SPR); format: binding
Chain of transferrin receptor (hTfR) (P02786 whole entry): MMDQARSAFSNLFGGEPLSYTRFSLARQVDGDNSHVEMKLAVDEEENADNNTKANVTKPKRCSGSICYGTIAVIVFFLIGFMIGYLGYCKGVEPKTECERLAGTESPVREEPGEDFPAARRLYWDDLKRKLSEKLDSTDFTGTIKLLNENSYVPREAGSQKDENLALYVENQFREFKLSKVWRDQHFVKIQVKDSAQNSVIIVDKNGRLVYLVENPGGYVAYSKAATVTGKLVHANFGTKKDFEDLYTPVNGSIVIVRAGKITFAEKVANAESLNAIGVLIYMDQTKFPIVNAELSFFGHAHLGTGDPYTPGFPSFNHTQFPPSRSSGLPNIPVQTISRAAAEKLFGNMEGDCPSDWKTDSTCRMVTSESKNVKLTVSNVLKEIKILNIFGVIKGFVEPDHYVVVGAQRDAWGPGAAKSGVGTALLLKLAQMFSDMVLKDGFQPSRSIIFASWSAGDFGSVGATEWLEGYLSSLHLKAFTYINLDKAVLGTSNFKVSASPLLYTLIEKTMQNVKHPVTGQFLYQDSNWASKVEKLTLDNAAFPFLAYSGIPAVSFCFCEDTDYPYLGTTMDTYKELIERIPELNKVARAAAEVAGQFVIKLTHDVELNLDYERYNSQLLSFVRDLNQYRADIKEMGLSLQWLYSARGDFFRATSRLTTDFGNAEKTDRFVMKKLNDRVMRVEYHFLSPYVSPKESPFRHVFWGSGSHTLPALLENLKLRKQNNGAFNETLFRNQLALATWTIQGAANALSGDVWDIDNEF
How it was run: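 Receptor was Ni-captured and EDC/NHS-fixed on an NTA chip; running buffer HEPES pH 8.0 with NaCl, Tween 20, BSA and 1.0% DMSO.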

[3] = surface plasmon resonance, hTfR, read-out: KD value for hTfR by SPR (class symbol)

Compound: Patent ID 448: 5-FAM labelled conjugate of hTfR_894_variant03_PEG4 (AVXVWNYXIIRXFYC; not fully specified; PEG4 linker, 5-FAM label; (3)..(3) Xaa is MeF3C; MOD_RES (5)..(5) …ON; (8)..(8) Xaa is F4OMe; (12)..(12) Xaa is dr; MOD_RES (14)..(14) …ON)
migration into the cells [1]: into the cells was confirmed

Compound: CC[C@H](C)[C@@H]1NC(=O)[C@H](Cc2ccc(O)cc2)NC(=O)[C@H](Cc2ccc(O)cc2)NC(=O)[C@H](CC(N)=O)NC(=O)[C@H](Cc2c[nH]c3ccccc23)NC(=O)[C@H](C(C)C)CC(=O)[C@H](Cc2ccccc2)N(C)C(=O)[C@H](C(C)C)NC(=O)[C@H](C)NC(=O)CSCC(C(=O)NCCOCCOCCOCCOCCC(=O)N[C@H](CCCCNC(=O)c2ccc(-c3c4ccc(=O)cc-4oc4cc(O)ccc34)c(C(=O)O)c2)C(N)=O)NC(=O)[C@H](Cc2ccc(O)cc2)N(C)C(=O)[C@H](Cc2ccc(O)cc2)NC(=O)[C@H](CCCNC(=N)N)NC(=O)[C@H](CCCNC(=N)N)NC(=O)[C@H]([C@@H](C)CC)NC1=O (stereo partly shown) [Patent ID 446] ({CH2CO}-AV[X6]WNYYIIRRY[NMeY][ξC][PEG4][dK](X2)-NH2; thioether N-14)
migration into the cells [1]: into the cells was confirmed

Compound: Patent ID 447: 5-FAM labelled conjugate of hTfR_894_variant61_PEG4 (AVXVWNYXIIXXFYC; not fully specified; PEG4 linker, 5-FAM label; (3)..(3) Xaa is MeF3C; MOD_RES (5)..(5) …ON; (8)..(8) Xaa is F4OMe; (11)..(11) Xaa is Aib; (12)..(12) Xaa is dr; MOD_RES (14)..(14) …ON)
migration into the cells [1]: into the cells was confirmed

Compound: CC[C@H](C)[C@@H]1NC(=O)[C@H](Cc2ccc(OC)cc2)NC(=O)[C@H](Cc2ccc(O)cc2)NC(=O)[C@H](CC(N)=O)NC(=O)[C@H](Cc2c[nH]c3ccccc23)N(C)C(=O)[C@H](C(C)C)NC(=O)[C@H](Cc2cccc(Cl)c2)N(C)C(=O)[C@H](C(C)C)NC(=O)[C@H](C)NC(=O)CSC[C@@H](C(=O)NCCOCCOCCOCCOCCC(N)=O)NC(=O)[C@H](Cc2ccc(O)cc2)N(C)C(=O)[C@H](Cc2ccccc2)NC(=O)[C@@H](CCCNC(=N)N)NC(=O)[C@H](CCCCCN)NC(=O)[C@H]([C@@H](C)CC)NC1=O [compound 369] ({CH2CO}-AV[NMePhe(3-Cl)]V[NMeW]NYY(Me)II[hLys][dR]F[NMeY]C[PEG4]-NH2; thioether N-15)
Kd [2, 3]: 1 to 100 nM

Compound: CC[C@H](C)[C@@H]1NC(=O)[C@H](Cc2ccc(OC)cc2)NC(=O)[C@H](Cc2ccc(O)cc2)NC(=O)[C@H](CC(N)=O)NC(=O)[C@H](Cc2c[nH]c3ccccc23)N(C)C(=O)[C@H](C(C)C)NC(=O)[C@H](Cc2cccc(Cl)c2)N(C)C(=O)[C@H](C(C)C)NC(=O)[C@H](C)NC(=O)CSC[C@@H](C(=O)NCC(=O)NCC(=O)NCC(=O)NCC(=O)N[C@@H](CO)C(=O)N[C@@H](CO)C(=O)N[C@@H](CS)C(N)=O)NC(=O)[C@H](Cc2ccc(O)cc2)N(C)C(=O)[C@H](Cc2ccccc2)NC(=O)[C@@H](CCCNC(=N)N)NC(=O)[C@H](CCCNC(=N)N)NC(=O)[C@H](CCCCCN)NC1=O [compound 341]
Kd [2]: 1 to 100 nM

Compound: CC[C@H](C)[C@@H]1NC(=O)[C@H](Cc2ccc(O)cc2)NC(=O)[C@H](Cc2ccc(O)cc2)NC(=O)[C@H](CC(N)=O)NC(=O)[C@H](Cc2c[nH]c3ccccc23)NC(=O)[C@H](C(C)C)NC(=O)[C@H](Cc2ccccc2)N(C)C(=O)[C@H](C(C)C)NC(=O)[C@H](C)NC(=O)CSC[C@@H](C(=O)NCC(=O)N[C@@H](CCCCN)C(N)=O)NC(=O)[C@H](Cc2ccc(O)cc2)N(C)C(=O)[C@H](Cc2ccc(O)cc2)NC(=O)[C@H](CCCNC(=N)N)NC(=O)[C@H](CCCCN)NC(=O)[C@H]([C@@H](C)CC)NC1=O [compound 526]
Kd ([2]; SPR, hTfR, class symbols A-D, read-out: KD (column without head, continuation of the table series)): 1 to 100 nM

Further lines, results first:

Kd ([2]; SPR, linker and payload (FITC, VivoTag) conjugates, read-out: KD): 1 to 100 nM
Compound: CC[C@H](C)[C@@H]1NC(=O)[C@H](Cc2ccc(O)cc2)NC(=O)[C@H](Cc2ccc(O)cc2)NC(=O)[C@H](CC(N)=O)NC(=O)[C@H](Cc2c[nH]c3ccccc23)NC(=O)[C@H](C(C)C)NC(=O)[C@H](Cc2ccccc2)NC(=O)[C@H](C(C)C)NC(=O)[C@H](C)NC(=O)CSC[C@@H](C(=O)NCCOCCOCCOCCOCCOCCOCCOCCOCCOCCOCCOCCOCCC(=O)N[C@@H](CCCCNC(=O)c2ccc(-c3c4ccc(=O)cc-4oc4cc(O)ccc34)c(C(=O)O)c2)C(N)=O)NC(=O)[C@H](Cc2ccc(O)cc2)N(C)C(=O)[C@H](CO)NC(=O)[C@H](CCCNC(=N)N)NC(=O)[C@H](Cc2ccccc2)NC(=O)[C@H](CCCNC(=N)N)NC(=O)[C@H](CC(=O)O)NC(=O)[C@H]([C@@H](C)CC)NC1=O [compound 150] ({CH2CO}-AVFVWNYYIIDRFRS[NMeY]C[PEG12]K(X2)-NH2; thioether N-17)

Kd ([2]; SPR, peptides, linker-added peptides and FITC conjugates, Patent ID 203-230, read-out: KD): 1 to 100 nM
Compound: CC[C@H](C)[C@@H]1NC(=O)[C@H](Cc2ccc(OC)cc2)NC(=O)[C@H](Cc2ccc(O)cc2)NC(=O)[C@H](CC(N)=O)NC(=O)[C@H](Cc2c[nH]c3ccccc23)N(C)C(=O)[C@H](C(C)C)NC(=O)[C@H](Cc2cccc(Cl)c2)N(C)C(=O)[C@H](C(C)C)NC(=O)[C@H](C)N(C)C(=O)CSC[C@@H](C(N)=O)NC(=O)[C@H](Cc2ccc(O)cc2)N(C)C(=O)[C@H](Cc2ccccc2)NC(=O)[C@@H](CCCNC(=N)N)NC(=O)[C@H](CCCNC(=N)N)NC(=O)[C@H]([C@@H](C)CC)NC1=O [compound 215]

Kd ([2]; SPR, hTfR, class symbols A-D, read-out: KD): 100 to 1000 nM
Compound: CC[C@H](C)[C@@H]1NC(=O)[C@H](Cc2ccc(OC)cc2)NC(=O)[C@H](Cc2ccc(O)cc2)NC(=O)[C@H](CC(N)=O)NC(=O)[C@H](Cc2c[nH]c3ccccc23)N(C)C(=O)[C@H](C(C)C)NC(=O)[C@H](Cc2ccncc2)N(C)C(=O)[C@H](C(C)C)NC(=O)[C@H](C)NC(=O)CSC[C@@H](C(N)=O)NC(=O)[C@H](Cc2ccc(O)cc2)N(C)C(=O)[C@H](Cc2ccccc2)NC(=O)[C@@H](CCCNC(=N)N)NC(=O)[C@H](CCCNC(=N)N)NC(=O)[C@H]([C@@H](C)CC)NC1=O [compound 451]

hTfR binding ability ([2]; SPR, result in words): no binding to hTfR was recognized
Compound: hTfRNo.894FLIP-vivotag750: control: cyclic peptide with inverted No. 894 sequence (SEQ ID NO: 202) bound to VivoTag 750 via PEG11 linker ({CH2CO}-A[NMeY]YRRIIYYNWVFVC-{PEG11′-VivoTag750}; thioether N-15 (inferred); not fully specified; printed as ClAc-Ala-MeTyr-Tyr-Arg-Arg-Ile-Ile-Tyr-Tyr-Asn-Trp-Val-Phe-Val-Cys) [reference compound]

Kd [2, 3]: 1 to 100 nM
Compound: CC[C@H](C)[C@@H]1NC(=O)[C@H](Cc2ccc(OC)cc2)NC(=O)[C@H](Cc2ccc(O)cc2)NC(=O)[C@H](CC(N)=O)NC(=O)[C@H](Cc2c[nH]c3ccccc23)N(C)C(=O)[C@H](C(C)C)NC(=O)[C@H](Cc2cccc(Cl)c2)N(C)C(=O)[C@H](C(C)C)NC(=O)[C@H](C)NC(=O)CSC[C@@H](C(N)=O)NC(=O)[C@H](Cc2ccc(O)cc2)N(C)C(=O)[C@H](Cc2ccccc2)NC(=O)[C@@H](C)NC(=O)[C@H](CCCCN)NC(=O)[C@H]([C@@H](C)CC)NC1=O [compound 372]

Kd ([2]; binding to hTfR by SPR, Table 2 peptides, read-out: KD value (SPR) class): 100 to 1000 nM
Compound: CC[C@H](C)[C@@H]1NC(=O)[C@H](Cc2ccc(O)cc2)NC(=O)[C@H](Cc2ccc(O)cc2)NC(=O)[C@H](Cc2c[nH]cn2)NC(=O)[C@H](Cc2c[nH]c3ccccc23)NC(=O)[C@H](C(C)C)NC(=O)[C@H](Cc2ccccc2)N(C)C(=O)[C@H](C(C)C)NC(=O)[C@H](C)NC(=O)CSC[C@@H](C(N)=O)NC(=O)[C@H](Cc2ccc(O)cc2)N(C)C(=O)[C@H](Cc2ccc(O)cc2)NC(=O)[C@H](CCCNC(=N)N)NC(=O)[C@H](CCCNC(=N)N)NC(=O)[C@H]([C@@H](C)CC)NC1=O [compound 274]

Kd ([2]; surface plasmon resonance, peptide vs hTfR, read-out: KD value, hTfR binding by SPR (class symbol)): 1 to 100 nM
Compound: CC[C@H](C)[C@@H]1NC(=O)[C@H](Cc2ccc(O)cc2)NC(=O)[C@H](Cc2ccc(O)cc2)NC(=O)[C@H](CC(N)=O)NC(=O)[C@H](Cc2c[nH]c3ccccc23)NC(=O)[C@H](C(C)C)NC(=O)[C@H](Cc2ccccc2)N(C)C(=O)[C@H](C(C)C)NC(=O)[C@H](C)NC(=O)CSC[C@@H](C(=O)NCC(=O)N[C@@H](CCCCN=[N+]=[N-])C(N)=O)NC(=O)[C@H](Cc2ccc(O)cc2)N(C)C(=O)[C@H](Cc2ccc(O)cc2)NC(=O)[C@H](CCCNC(=N)N)NC(=O)[C@H](CCCNC(=N)N)NC(=O)[C@H]([C@@H](C)CC)NC1=O [compound 297]
